# Results published in US11707557B2, “Compositions and devices incorporating water-insoluble therapeutic agents and methods of the use thereof” (COOK MEDICAL TECHNOLOGIES LLC, priority 2014, dated 2023).
# Columns and labels:
# pig bladder tissue [1] = experiment: Uptake of docetaxel or paclitaxel into pig bladder tissue from EGCG or tannic acid solutions (Franz cells); format: in vitro ADME; details: drug 200 microg/ml in EGCG or tannic acid at 50 mg/ml, urothelial side, 2 hours
# Experimental: Methods: Fresh ex vivo pig bladders were cut into 2 cm diameter pieces and laid on franz diffusions cells. […] The solutions were then made up in tyrodes buffer pH 7.4 and 400 ul was placed on the urothelial side of the tissue for 2 hours. The tissues were then frozen and cryosectioned for radioactivity counting by liquid scintillation methods.
# pig skin = test system: pig skin
# Experimental: Various gallate-containing drug formulations were prepared and applied to ex vivo pig skin samples. Fresh pig skin was obtained from a local butcher, processed within three hours and then frozen. For experiments, the skin was slowly thawed, excess fat removed from the base, and cut into 1×2 cm squares. These squares were mounted and clamped on Franz diffusion cells, which kept the tissue moist and isolated and exposed a 6 mm diameter of the upper skin surface for the application of a drug loaded formulation. Skin samples were then frozen and later cryosectioned in 50 μm slices. The drug in the slices was extracted and measured by HPLC or radioactive doping methods. A drug depth profile was then established for each drug.
# 1. Formulations containing a drug and a gallate. The drugs were dissolved in ethanol at various concentrations along with either EGCG or TA (500 mg/mL). Each solution was pipetted into 6×5 mm diameter aluminum cups (approximately 3 mm in height) by filling and allowing the ethanol to evaporate at 50° C. until all the solution was used up (80 mg per cup).
# 2. Formulations containing a drug, propylene glycol (“PG”) and a gallate. 300 mg of propylene glycol was mixed with 200 mg of EGCG or TA until dissolved. Various amounts of drug were added to this mixture and dissolved. 80 mg of the resulting viscous solution was weighed into 6×5 mm aluminum cups.
# 3. Control Formulations. Control formulations were prepared using Glaxal base and Plogel. Glaxal base is a cream used by compounding pharmacists to manufacture topical formulations of drugs. Plogel is an alternative used for dermal formulations. […] Drug was added to a known weight of Glaxal or Plogel and levigated to produce a standard drug dispersion. These formulations were prepared the evening before the experiment. For some drugs, radioactive drug (where available) was also added as a doping additive to facilitate quantitation in tissues.
# Eutectics: In some cases, gallate containing compounds and drugs were formulated in eutectic mixtures. These included a 60:40 (% w/w) mixture of menthol with ibuprofen. These agents acted as a carrier for retinoic acid, which was then dissolved in this liquid. The 3-drug eutectic/solution was then blended into the CMC/poloxamer emulsion containing EGCG (2.5%). […] The emulsion was stabilized with poloxamer.
# Example 29. Pig skin studies. Aluminum cups containing drug formulations were inverted on top of the pig skin in the Franz diffusion cell so that the formulation contents were in contact with the skin. […]
# Analysis. […] The amount of drug in each group of skin sections was then determined using HPLC methods, or by radioactivity counting on a liquid scintillation counter. The amount of drug in each group of skin sections was expressed as μg/g or mg/g of tissue.
# [2] = Drug release from injectable PG:gallate pastes (60:40) into PBS; format: physicochemical; details: 60:40 PG:EGCG or PG:tannic acid, 2% w/w drug, PBS pH 7.4, 37° C.
# Experimental: Methods: 60:40% w/w PG:EGCG or PG:tannic acid was used in these studies. 588 mg of propylene glycol was weighed into a 20 mL glass vials and 392 of EGCG or tannic acid was added followed by vortexing to distribute and dissolve the gallates. The vials were warmed to 60° C. and vortexed until all the contents were in solution. At this time 20 mg of drug was added (2% w/w) and vortexed until in solution. The following drugs were used: paclitaxel, docetaxel, retinoic acid, amphotericin B, and curcumin. 100 mg of each paste was weighed into the base of a 15 mL glass test tube and 10 mL of phosphate buffered saline was added at pH 7.4 and the tubes were incubated at 37° C. for certain times. All 10 mL of the PBS release media was removed and 1 mL analyzed by HPLC for drug content. 10 mL of fresh PBS was then added to all tubes
# pig bladder tissue [3] = experiment: Uptake of paclitaxel or docetaxel into pig bladder tissue from triblock or diblock copolymer-MEPEG pastes; format: in vitro ADME; details: EGCG or tannic acid loaded triblock copolymer paste, perivesicular side, 2 hours
# Source text: Methods: Fresh ex vivo pigs bladders were cut into 2 cm diameter pieces and laid on franz diffusions cells. […] The synthesis of the diblock copolymer is described in example X and is composed of a MEPEG molecule of 2000 molecular weight with polylactic acid at a molecular weight of 1330. The triblock copolymer was synthesized in house and has a composition of 35/35/30 (polycaprolactone, polylactic acid, polyethylene glycol with a total molecular weight of 4600. The triblock was synthesized by heating a mixture of caprolactone (Sigma chemicals) lactic acid (Polysciences) and Polyethylene glycol (Sigma molecular weight 1380) to 120° C. under nitrogen overnight followed by cooling and washing in hexane or cold ethanol. 100 mg of paste was applied to the perivascular side of the bladder tissue and 200 ul of tyrodes buffer pH 7.4 was added. The tissue was incubated for 2 hours at 37° C. and then the diffusion cell was disassembled, the tissue was washed free of remaining paste with excess tyrodes and the tissues were then frozen and cryosectioned for radioactivity counting by liquid scintillation methods.
# mdck-mdr cells = experiment: Uptake of paclitaxel into drug resistant mdck-mdr cells with or without EGCG; format: cell-based, canine
compound,measurement,setting,value
CC(=O)O[C@H]1C(=O)[C@@]2(C)[C@H]([C@H](OC(=O)c3ccccc3)[C@]3(O)C[C@H](OC(=O)[C@H](O)[C@@H](NC(=O)c4ccccc4)c4ccccc4)C(C)=C1C3(C)C)[C@]1(OC(C)=O)CO[C@@H]1C[C@@H]2O [paclitaxel],drug penetration through bladder tissue,pig bladder tissue [1],high levels of drug penetration
same,drug uptake by pig skin,pig skin,low levels of drug uptake
same,drug release from PG:gallate paste,[2],relatively controlled release of the drug over 24 hours
same,penetration into the bladder tissue,pig bladder tissue [3],allowed for the penetration
same,paclitaxel level in cells,mdck-mdr cells; co-incubated with EGCG at 50 microg/ml,≤ 2000 pg/mg
same,paclitaxel level in cells,mdck-mdr cells; paclitaxel alone,< 200 pg/mg cellular protein
same,increase in drug uptake with EGCG,mdck-mdr cells; with EGCG versus alone,10 fold
CC(=O)O[C@@]12CO[C@@H]1C[C@H](O)[C@@]1(C)C(=O)[C@H](O)C3=C(C)[C@@H](OC(=O)[C@H](O)[C@@H](NC(=O)OC(C)(C)C)c4ccccc4)C[C@@](O)([C@@H](OC(=O)c4ccccc4)[C@H]21)C3(C)C [docetaxel],drug penetration through bladder tissue,pig bladder tissue [1],high levels of drug penetration
same,drug uptake by pig skin relative to controls,pig skin,higher levels of uptake as compared to the control formulations
same,drug release from PG:gallate paste,[2],relatively controlled release of the drug over 24 hours
same,penetration into the bladder tissue,pig bladder tissue [3],allowed for the penetration
